Source: patent US5506102A (priority 1993, dated 1996)

Experiments:
[1] = target: T1, glucocorticoid receptor (GR) (Homo sapiens, UniProt P04150); details: high concentrations, dexamethasone present, FIG. 8B
T1 sequence (P04150 1-777): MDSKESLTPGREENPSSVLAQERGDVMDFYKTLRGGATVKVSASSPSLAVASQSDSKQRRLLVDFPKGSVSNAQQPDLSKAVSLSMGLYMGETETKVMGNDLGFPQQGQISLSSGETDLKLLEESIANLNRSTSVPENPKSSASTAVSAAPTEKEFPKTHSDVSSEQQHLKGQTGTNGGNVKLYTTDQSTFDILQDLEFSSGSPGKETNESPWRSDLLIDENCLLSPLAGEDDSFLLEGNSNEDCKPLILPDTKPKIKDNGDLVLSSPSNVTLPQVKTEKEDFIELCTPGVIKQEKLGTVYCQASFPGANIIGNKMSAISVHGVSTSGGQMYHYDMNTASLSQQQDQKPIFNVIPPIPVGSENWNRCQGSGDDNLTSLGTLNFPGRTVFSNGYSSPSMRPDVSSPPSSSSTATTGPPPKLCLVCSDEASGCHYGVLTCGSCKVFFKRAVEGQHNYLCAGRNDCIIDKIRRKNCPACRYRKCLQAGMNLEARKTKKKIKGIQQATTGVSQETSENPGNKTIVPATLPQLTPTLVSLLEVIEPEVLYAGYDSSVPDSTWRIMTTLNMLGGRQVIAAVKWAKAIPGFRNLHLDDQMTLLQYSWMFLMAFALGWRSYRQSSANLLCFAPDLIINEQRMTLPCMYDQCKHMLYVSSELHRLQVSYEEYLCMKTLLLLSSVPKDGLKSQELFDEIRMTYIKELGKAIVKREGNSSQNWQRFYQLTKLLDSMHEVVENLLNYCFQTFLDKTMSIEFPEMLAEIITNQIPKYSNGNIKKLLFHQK
Experimental: Cells were seeded in 12-well, 96-well or 10 cm tissue culture plates. […] 20 μg of DNA/ml of transfection buffer were used in each transfection reaction. In this mix, the concentration of the luciferase plasmids and that of the internal control plasmid pCH110 (Pharmacia, Inc.), which contains the gene for the β-galactosidase enzyme, remained constant ([…] of each plasmid DNA), while the receptor plasmid concentration varied as indicated for each experiment. Different amounts of receptor parental plasmid, pSV2-neo (Dr. Bert O'Malley, Baylor College of Medicine, Houston, Tex.) was included to keep constant the total amount of the SV40 enhancer vectors. pGEM4 plasmid DNA (Promega Biotech, Madison, Wis.) was added to balance the total DNA concentration to 20 g/reaction. For the 96-well plate experiments, transfections were performed on a Biomek 1000 Automated Laboratory Workstation (Beckman Instruments, Fullerton, Calif.).
Cells were seeded 24 hours prior to transfection in the fiat-bottom tissue culture plates ([…]) in phenol red-free DMEM containing 10% FCS. […] Using calcium phosphate co-precipitation, DNA solution was added dropwise with vortexing into an equal volume of 2X HBS pH 6.9 (280 mM NaCl. 50 mM HEPES, 1.5 mM Na2 HPO4) and precipitates were allowed to form for 20 minutes. Cells were transfected ( […] of DNA mix/well) for 6 hours and then washed with phosphate-bufferedsaline (PBS) to remove the precipitate. Cells were incubated for an additional 24 hours in phenol red-free medium containing 10% charcoal-treated FCS, with or without hormones as indicated in the text. Cell extracts were prepared as described by Berger et al., Supra, and assayed for luciferase and β-galactosidase activities. All determinations were performed in triplicates in at least two independent experiments, and were normalized for transfection efficiency by using β-galactosidase as an internal control.

[2] = target: T2, PR-B (Homo sapiens, UniProt P06401); test: PR-B regulation of TAT promoter; assay type: cell-based; set-up: expressed in transfected cells; host or cells: CV-1, HepG2 (PRE2 tk-LUC); HeLa, also HepG2 and CV-1 (TAT promoter); details: data not shown
T2 sequence (P06401 1-933): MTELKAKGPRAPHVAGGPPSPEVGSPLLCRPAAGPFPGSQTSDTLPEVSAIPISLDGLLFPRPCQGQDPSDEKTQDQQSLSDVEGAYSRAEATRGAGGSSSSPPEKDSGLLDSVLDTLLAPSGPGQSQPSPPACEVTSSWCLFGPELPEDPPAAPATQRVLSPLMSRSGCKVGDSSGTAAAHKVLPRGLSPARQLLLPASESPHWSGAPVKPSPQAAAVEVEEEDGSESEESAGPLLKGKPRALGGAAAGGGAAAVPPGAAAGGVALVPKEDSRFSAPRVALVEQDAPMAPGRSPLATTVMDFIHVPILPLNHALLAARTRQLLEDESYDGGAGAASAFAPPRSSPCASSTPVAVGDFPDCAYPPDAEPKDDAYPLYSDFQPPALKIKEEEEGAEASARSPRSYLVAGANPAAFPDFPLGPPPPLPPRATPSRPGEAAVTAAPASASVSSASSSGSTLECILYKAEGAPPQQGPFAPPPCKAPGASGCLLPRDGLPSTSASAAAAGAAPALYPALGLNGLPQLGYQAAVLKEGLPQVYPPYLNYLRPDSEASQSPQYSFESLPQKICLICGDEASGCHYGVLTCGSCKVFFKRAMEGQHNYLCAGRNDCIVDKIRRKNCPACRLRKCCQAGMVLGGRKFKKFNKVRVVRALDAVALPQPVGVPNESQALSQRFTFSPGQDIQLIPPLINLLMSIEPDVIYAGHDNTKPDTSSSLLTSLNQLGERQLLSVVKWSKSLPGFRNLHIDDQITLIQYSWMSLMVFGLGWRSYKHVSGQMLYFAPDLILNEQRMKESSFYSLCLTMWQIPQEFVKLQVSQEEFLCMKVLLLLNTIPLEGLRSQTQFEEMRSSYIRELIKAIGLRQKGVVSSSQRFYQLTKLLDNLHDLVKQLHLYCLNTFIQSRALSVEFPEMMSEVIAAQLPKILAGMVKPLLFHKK
Experimental: FIGS. 4A-4B are a series of graphs showing CV-1 ([…]) or HepG2 (FIG. 4B) cells that were transiently transfected with either […] of phPR-B or phPR-A alone, or phPR-B in the presence of increasing concentrations of phPR-A, together with 5 µg/ml of the PRE2 tk-LUC reporter and 5 µg/ml of pCH110 as an internal control. HeLa cells (FIG. 4C) were transfected with either phPR-B or phPR-A together with 5 µg/ml of the pTAT2950 reporter and 5 µg/ml of pCH110 as an internal control. […] The relative luciferase activity is calculated by dividing the normalized luciferase value at a given point by that obtained in the absence of transfected receptor or ligand. The data shown represent the mean +/- average deviation from the mean of triplicate estimations;
The 2.9 Kb fragment resulting from the digestion of the pTAT-CAT plasmid, and the 6.7 Kb fragment, containing the luciferase gene and the backbone resulting from MMTV-LUC digestion products, were ligated to create the plasmid TAT2950-LUC.
Cells were seeded in 12-well, 96-well or 10 cm tissue culture plates. […] 20 μg of DNA/ml of transfection buffer were used in each transfection reaction. […]

Row | Compound | direct inhibition of GR function [1] | TAT promoter response ([2]; CV-1, PR-B) | TAT promoter response to progesterone ([2]; HepG2, phPR-B)
1 | CC#C[C@]1(O)CC[C@H]2[C@@H]3CCC4=CC(=O)CCC4=C3[C@@H](c3ccc(C(C)=O)cc3)C[C@@]21C [ZK112993] | directly inhibited GR function | – | –
2 | CC(=O)[C@H]1CC[C@H]2[C@@H]3CCC4=CC(=O)CC[C@]4(C)[C@H]3CC[C@]12C [progesterone] | – | unresponsive to either receptor subtype | responded to progesterone
